“And” between values parts separate entries of the source, which are not always exact repeats. Equal values may be shown once.
Key:
respiratory function = experiment: Respiratory function, whole body plethysmography; details: female, rat, in vivo
[1] = Respiratory function, whole body plethysmography; details: female, rat; for Cmax: plasma, po
Cav3.3 = target: T1, Cav3.3 (Homo sapiens, UniProt Q9P0X4); experiment: Cav3.3 whole-cell voltage-clamp; format: cell-based
T1 construct: expressed in transfected cells; host or cells: HEK 293
T1 sequence (Q9P0X4 whole entry, species assumed): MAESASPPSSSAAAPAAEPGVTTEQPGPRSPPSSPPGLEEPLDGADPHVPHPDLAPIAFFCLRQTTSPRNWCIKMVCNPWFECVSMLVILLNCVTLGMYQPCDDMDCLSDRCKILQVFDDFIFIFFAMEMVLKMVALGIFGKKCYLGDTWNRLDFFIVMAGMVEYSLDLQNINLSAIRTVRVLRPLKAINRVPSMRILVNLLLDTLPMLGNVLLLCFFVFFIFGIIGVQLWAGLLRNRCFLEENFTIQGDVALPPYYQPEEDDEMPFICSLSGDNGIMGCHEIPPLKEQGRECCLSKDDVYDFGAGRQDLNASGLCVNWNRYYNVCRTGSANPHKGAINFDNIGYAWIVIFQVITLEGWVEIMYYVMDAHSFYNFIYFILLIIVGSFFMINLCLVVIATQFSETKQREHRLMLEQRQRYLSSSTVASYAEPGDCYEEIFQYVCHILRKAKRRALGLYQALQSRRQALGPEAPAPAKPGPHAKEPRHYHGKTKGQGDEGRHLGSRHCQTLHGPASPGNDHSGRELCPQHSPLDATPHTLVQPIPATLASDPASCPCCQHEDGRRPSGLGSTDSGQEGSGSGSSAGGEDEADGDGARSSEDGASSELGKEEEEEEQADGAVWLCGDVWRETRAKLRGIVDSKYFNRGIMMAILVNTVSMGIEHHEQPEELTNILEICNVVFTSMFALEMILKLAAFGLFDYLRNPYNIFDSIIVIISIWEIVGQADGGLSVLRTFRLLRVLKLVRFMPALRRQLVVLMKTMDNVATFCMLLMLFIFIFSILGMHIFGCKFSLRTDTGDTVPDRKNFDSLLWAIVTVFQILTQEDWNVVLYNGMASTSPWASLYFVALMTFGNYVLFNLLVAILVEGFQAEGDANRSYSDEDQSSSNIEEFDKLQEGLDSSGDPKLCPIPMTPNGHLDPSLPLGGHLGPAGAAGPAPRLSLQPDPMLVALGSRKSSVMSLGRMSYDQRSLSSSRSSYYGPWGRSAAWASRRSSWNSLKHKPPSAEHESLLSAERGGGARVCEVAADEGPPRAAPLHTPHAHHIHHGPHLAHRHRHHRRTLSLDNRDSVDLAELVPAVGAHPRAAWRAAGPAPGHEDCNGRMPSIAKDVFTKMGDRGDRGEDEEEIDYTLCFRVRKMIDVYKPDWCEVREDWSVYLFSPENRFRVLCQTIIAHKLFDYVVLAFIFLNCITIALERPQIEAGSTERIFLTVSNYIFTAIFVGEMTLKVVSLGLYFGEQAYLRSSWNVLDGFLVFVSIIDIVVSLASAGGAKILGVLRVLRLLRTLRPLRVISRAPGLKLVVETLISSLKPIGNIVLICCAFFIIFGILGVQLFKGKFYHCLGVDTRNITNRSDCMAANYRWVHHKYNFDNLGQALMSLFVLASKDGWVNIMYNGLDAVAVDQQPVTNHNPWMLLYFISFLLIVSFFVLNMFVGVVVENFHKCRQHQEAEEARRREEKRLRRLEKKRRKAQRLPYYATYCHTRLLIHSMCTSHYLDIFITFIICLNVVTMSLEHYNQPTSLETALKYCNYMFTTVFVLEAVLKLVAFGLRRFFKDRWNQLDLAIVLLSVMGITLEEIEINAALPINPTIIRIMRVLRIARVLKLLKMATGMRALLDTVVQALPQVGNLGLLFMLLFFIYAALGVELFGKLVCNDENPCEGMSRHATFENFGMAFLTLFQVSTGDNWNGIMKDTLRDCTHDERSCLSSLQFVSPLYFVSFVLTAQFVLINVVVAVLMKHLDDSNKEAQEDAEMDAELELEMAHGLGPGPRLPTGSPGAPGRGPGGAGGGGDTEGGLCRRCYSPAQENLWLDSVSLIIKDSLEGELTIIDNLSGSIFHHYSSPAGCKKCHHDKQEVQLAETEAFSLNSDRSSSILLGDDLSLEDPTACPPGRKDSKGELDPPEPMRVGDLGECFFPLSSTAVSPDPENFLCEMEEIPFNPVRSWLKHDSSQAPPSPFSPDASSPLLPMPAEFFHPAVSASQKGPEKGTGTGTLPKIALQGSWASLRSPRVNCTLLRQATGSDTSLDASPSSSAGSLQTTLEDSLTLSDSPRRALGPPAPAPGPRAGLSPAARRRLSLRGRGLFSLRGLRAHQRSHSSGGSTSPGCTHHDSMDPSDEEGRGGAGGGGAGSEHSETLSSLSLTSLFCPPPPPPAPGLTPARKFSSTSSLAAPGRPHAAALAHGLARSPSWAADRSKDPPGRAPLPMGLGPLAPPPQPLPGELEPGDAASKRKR

cardiovascular function = experiment: Cardiovascular function in anesthetized vagotomized dogs, IV; format: in vivo, dog; details: 10 mg/kg IV
[2] = test system: patients with essential tremor; experiment: T-CALM: Patient Global Impression of Change (PGIC); format: in vivo, human; details: for PGIC (rescaled −3 to 3), LS mean (SE) / PGIC, LS mean difference from placebo (95% CI): ANCOVA; for 0 - no change / 1 - minimally improved / 2 - much improved / 3 - very much improved / −1 - minimally worse / −2 - much worse / −3 - very much worse: PGIC
From the text: Treatment success as measured by PGIC was summarized using descriptive statistics.

## CC(C)c1ccc(CC(=O)N[C@H](C)c2ccc(OCC(F)(F)F)cn2)cc1 [CX-8998]
Respiratory function
  NOEL for respiratory function: < 30 mg/kg
[1]; in vivo
  NOAEL: 30 mg/kg
[1]; 300 mg/kg
  Cmax: ~28 µM
[1]; 2000 mg/kg
  Cmax: ~34 µM
Cav3.3; Vh −80 mV
  IC50: ~84 nM and 84 nM
Cav3.3; Vh=−100 mV
  IC50: ~2400 nM and 2400 nM
Cardiovascular function
  Decrease in mean arterial pressure: 15%
  Increase in PR interval: 7%
[2]; Day 15
  PGIC Improved, percent: 66.67%
  PGIC No Change, number: 11
  PGIC No Change, percent: 28.2%
  PGIC Worsened, number: 2
  PGIC Worsened, percent: 5.12%
  PGIC (rescaled −3 to 3), LS mean (SE): 0.9 (0.17)
  PGIC, LS mean difference from placebo (95% CI): 0.7 (0.2, 1.1)
  0 - no change: 11 (28%) n (%)
  1 - minimally improved: 17 (44%) n (%)
  2 - much improved: 8 (21%) n (%)
  3 - very much improved: 1 (3%) n (%)
  −1 - minimally worse: 1 (3%) n (%)
  −2 - much worse: 1 (3%) n (%)
  −3 - very much worse: 0 n (%)
[2]; Day 15, N = 39
  PGIC (rescaled −3 to 3), Mean (SD): 1 (1.0)
  PGIC (rescaled −3 to 3), Median (minimum, maximum): 1 (−2, 3)
  PGIC Category 0 No change, patients n (%): 11 (28%)
  PGIC Category 1 Minimally improved, patients n (%): 17 (44%)
  PGIC Category 2 Much improved, patients n (%): 8 (21%)
  PGIC Category 3 Very much improved, patients n (%): 1 (3%)
  PGIC Category −1 Minimally worse, patients n (%): 1 (3%)
  PGIC Category −2 Much worse, patients n (%): 1 (3%)
  PGIC Category −3 Very much worse, patients n (%): 0
[2]; Day 28
  PGIC Improved, number: 20
  PGIC Improved, percent: 54.05%
  PGIC No Change, number: 14
  PGIC No Change, percent: 37.84%
  PGIC Worsened, number: 3
  PGIC Worsened, percent: 8.11%
  PGIC (rescaled −3 to 3), LS mean (SE): 0.8 (0.19)
  PGIC, LS mean difference from placebo (95% CI): 0.4 (−0.1, 0.9)
  0 - no change: 14 (36%) n (%)
  1 - minimally improved: 10 (26%) n (%)
  2 - much improved: 7 (18%) n (%)
  3 - very much improved: 3 (8%) n (%)
  −1 - minimally worse: 1 (3%) n (%)
  −2 - much worse: 1 (3%) n (%)
  −3 - very much worse: 1 (3%) n (%)
[2]; Day 28, N = 39
  PGIC Category 0 No change, patients n (%): 14 (36%)
  PGIC Category 1 Minimally improved, patients n (%): 10 (26%)
  PGIC Category 2 Much improved, patients n (%): 7 (18%)
  PGIC Category 3 Very much improved, patients n (%): 3 (8%)
  PGIC Category −1 Minimally worse, patients n (%): 1 (3%)
  PGIC Category −2 Much worse, patients n (%): 1 (3%)
  PGIC Category −3 Very much worse, patients n (%): 1 (3%)
[2]; Day 28, N=37
  PGIC (rescaled −3 to 3), Mean (SD): 1 (1.3)
  PGIC (rescaled −3 to 3), Median (minimum, maximum): 1 (−3, 3)
